Experimental data: patent publication US20160375033A1, “METHODS OF TREATMENT WITH TASELISIB” (Genentech, Inc., priority 2015, published 2016)

Target: T1, p110a protein (Homo sapiens, UniProt P42336, H1047R)
T1 construct: endogenous in cells; host or cells: HCC1954 (PIK3CA H1047R plus a wild-type allele)
Assay: Western blot analysis of p110a protein degradation
Assay type: cell-based
Protocol: Cell Culture: Cell lines were grown under standard tissue culture conditions in RPMI media with 10% fetal bovine serum, 100 U/mL penicillin, and 100 μg/mL streptomycin. […] Protein concentrations were determined using the Pierce BCA Protein Assay Kit (Thermo Fisher Scientific; Rockford, Ill.).
Protein Assays: Protein concentration was determined using the Pierce BCA Protein Assay Kit (Rockford, Ill.). […] Antibodies to p110alpha, and phospho-Akt (Ser473), were obtained from Cell Signaling (Danvers, Mass.). Antibodies to beta-actin and GAPDH were from Sigma.
Beta Actin antibody was obtained from Sigma-Aldrich (St. Louis, Mo.). Specific antigen-antibody interaction was detected with a horseradish peroxidase-conjugated secondary antibody IgG using enhanced chemiluminescence Western blotting detection reagents (GE Healthcare Life Sciences, Pittsburgh, Pa.).
Monoclonal and polyclonal PI3K p110 alpha antibodies are commercially available (Santa Cruz Biotechnology).

T1 sequence (P42336 whole entry H1047R): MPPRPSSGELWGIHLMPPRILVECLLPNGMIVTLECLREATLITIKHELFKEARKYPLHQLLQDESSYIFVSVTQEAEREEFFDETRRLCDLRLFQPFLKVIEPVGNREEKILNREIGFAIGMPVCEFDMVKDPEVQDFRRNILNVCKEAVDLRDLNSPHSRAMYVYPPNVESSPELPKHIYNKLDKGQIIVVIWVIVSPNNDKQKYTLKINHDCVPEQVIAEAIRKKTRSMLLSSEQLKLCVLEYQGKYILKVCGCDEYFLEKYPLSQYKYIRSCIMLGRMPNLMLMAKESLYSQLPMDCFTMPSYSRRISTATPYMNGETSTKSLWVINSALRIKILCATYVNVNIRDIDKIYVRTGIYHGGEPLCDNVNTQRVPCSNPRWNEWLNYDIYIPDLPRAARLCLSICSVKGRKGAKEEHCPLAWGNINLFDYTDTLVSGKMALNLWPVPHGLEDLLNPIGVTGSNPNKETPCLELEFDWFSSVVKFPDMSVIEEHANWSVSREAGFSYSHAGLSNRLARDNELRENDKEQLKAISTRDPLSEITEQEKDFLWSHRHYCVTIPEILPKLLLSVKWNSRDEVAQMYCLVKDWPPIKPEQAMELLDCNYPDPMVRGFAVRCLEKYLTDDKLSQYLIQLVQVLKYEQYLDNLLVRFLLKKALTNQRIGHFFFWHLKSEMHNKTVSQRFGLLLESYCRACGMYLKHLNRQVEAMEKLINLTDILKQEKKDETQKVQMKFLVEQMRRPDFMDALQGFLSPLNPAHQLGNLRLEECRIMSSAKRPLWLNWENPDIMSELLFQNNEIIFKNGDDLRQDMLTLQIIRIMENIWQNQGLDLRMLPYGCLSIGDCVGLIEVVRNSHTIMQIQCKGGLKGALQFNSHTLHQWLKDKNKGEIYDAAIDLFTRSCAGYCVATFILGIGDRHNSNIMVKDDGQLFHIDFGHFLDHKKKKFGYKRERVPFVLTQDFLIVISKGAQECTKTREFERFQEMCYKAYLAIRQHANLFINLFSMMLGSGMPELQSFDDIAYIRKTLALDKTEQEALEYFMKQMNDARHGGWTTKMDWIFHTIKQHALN

SMILES: Cc1nc(-c2cn3c(n2)-c2ccc(-c4cnn(C(C)(C)C(N)=O)c4)cc2OCC3)n(C(C)C)n1 [GDC-0032, 2-(4-(2-(1-isopropyl-3-methyl-1H-1,2,4-triazol-5-yl)-5,6-dihydrobenzo[f]imidazo[1,2-d][1,4]oxazepin-9-yl)-1H-pyrazol-1-yl)-2-methylpropanamide]
- time dependence of p110 alpha depletion (HCC1954 (PIK3CA H1047R), 1 μM and 5 μM): depleted in a time dependent manner
- time after washout at which p110a level begins to return (HCC1954 (PIK3CA H1047R), 16, 80, 400 nM): 8 to 24 h
- degradation of membrane-associated versus cytosolic p110a (HCC1954 (PIK3CA H1047R), membrane, cytosol, total lysate): rapidly mediates degradation of mutant p110a at the plasma membrane
- degradation of mutant p110a protein (HCC1954 cells (PIK3CA H1047R), 24 hrs): uniquely degrades mutant-p110a protein
- p110a depletion and p85 level (PIK3CA wildtype HDQP1 and mutant HCC1954 cells): p110a depletion in PIK3CA mutant cell lines without effecting p85 level
- p110a degradation, mutant versus wild type (SW48 parental, E545K het, H1047R het, 0.2, 1, 5 μM): Mutant p110a is more susceptible than wild type to degradation
- p110a degradation, p85 co-immunoprecipitation (cells treated for 24 h): significant dose dependent p110a degradation
